In the supplement of paper PMC11451515:

Test system: NOMO1
Test: cell viability relative to DMSO control; higher = less cytotoxic
Conditions: 48 h
Method in brief: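 Viability was expressed as a per-plate percentage of DMSO wells, with cell-free wells as background. Leukemia cells (NOMO1 or SEM at 500 cells/well, P12-Ichikawa at 1000 cells/well) were adapted for at least four passages in each medium and seeded in 1536-well plates (5 μl). Library compounds in DMSO were pin-dosed over an 11-point threefold series from 47 μM to 0.79 nM, and CellTiter-Glo One luminescence was read after 48 h at 37°C.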

[1] = HPLM + 10% dialyzed FBS, 0.000781 µM
[2] = HPLM + 10% dialyzed FBS, 0.00234 µM
[3] = HPLM + 10% dialyzed FBS, 0.00702 µM
[4] = HPLM + 10% dialyzed FBS, 0.0211 µM
[5] = HPLM + 10% dialyzed FBS, 0.0632 µM
[6] = HPLM + 10% dialyzed FBS, 0.19 µM
[7] = HPLM + 10% dialyzed FBS, 0.569 µM
[8] = HPLM + 10% dialyzed FBS, 1.71 µM
[9] = HPLM + 10% dialyzed FBS, 5.12 µM
[10] = HPLM + 10% dialyzed FBS, 15.4 µM
[11] = HPLM + 10% dialyzed FBS, 46.1 µM
[12] = RPMI 5 mM glucose + 10% FBS, 0.000781 µM
[13] = RPMI 5 mM glucose + 10% FBS, 0.00234 µM
[14] = RPMI 5 mM glucose + 10% FBS, 0.00702 µM
[15] = RPMI 5 mM glucose + 10% FBS, 0.0211 µM
[16] = RPMI 5 mM glucose + 10% FBS, 0.0632 µM
[17] = RPMI 5 mM glucose + 10% FBS, 0.19 µM
[18] = RPMI 5 mM glucose + 10% FBS, 0.569 µM
[19] = RPMI 5 mM glucose + 10% FBS, 1.71 µM
[20] = RPMI 5 mM glucose + 10% FBS, 5.12 µM
[21] = RPMI 5 mM glucose + 10% FBS, 15.4 µM
[22] = RPMI 5 mM glucose + 10% FBS, 46.1 µM
[23] = RPMI 5 mM glucose + 10% dialyzed FBS, 0.000781 µM
[24] = RPMI 5 mM glucose + 10% dialyzed FBS, 0.00234 µM
[25] = RPMI 5 mM glucose + 10% dialyzed FBS, 0.00702 µM
[26] = RPMI 5 mM glucose + 10% dialyzed FBS, 0.0211 µM
[27] = RPMI 5 mM glucose + 10% dialyzed FBS, 0.0632 µM
[28] = RPMI 5 mM glucose + 10% dialyzed FBS, 0.19 µM
[29] = RPMI 5 mM glucose + 10% dialyzed FBS, 0.569 µM
[30] = RPMI 5 mM glucose + 10% dialyzed FBS, 1.71 µM
[31] = RPMI 5 mM glucose + 10% dialyzed FBS, 5.12 µM
[32] = RPMI 5 mM glucose + 10% dialyzed FBS, 15.4 µM
[33] = RPMI 5 mM glucose + 10% dialyzed FBS, 46.1 µM

Row | Structure (SMILES) | cell viability [1] | cell viability [2] | cell viability [3] | cell viability [4] | cell viability [5] | cell viability [6] | cell viability [7] | cell viability [8] | cell viability [9] | cell viability [10] | cell viability [11] | cell viability [12] | cell viability [13] | cell viability [14] | cell viability [15] | cell viability [16] | cell viability [17] | cell viability [18] | cell viability [19] | cell viability [20] | cell viability [21] | cell viability [22] | cell viability [23] | cell viability [24] | cell viability [25] | cell viability [26] | cell viability [27] | cell viability [28] | cell viability [29] | cell viability [30] | cell viability [31] | cell viability [32] | cell viability [33]
1 | CCCC(CCC)C(=O)[O-] | 106% | 105% | 113% | 122% | 116% | 120% | 109% | 110% | 101% | 84.9% | 63.8% | 86.1% | 96.6% | 107% | 123% | 106% | 113% | 107% | 102% | 111% | 94.4% | 92.1% | 75.5% | 108% | 105% | 106% | 112% | 116% | 114% | 109% | 98.6% | 110% | 101%
2 | CC(C)(C)Cn1c(N)nc2ccc(-c3[nH]c(C(C)(C)C)nc3-c3ccc(F)cc3)nc21 | 84.9% | 84.6% | 79.9% | 78.4% | 90.8% | 81% | 83.6% | 64.3% | 75.3% | 64.7% | 49.6% | 84.3% | 88.4% | 76.3% | 75.9% | 90.8% | 79.9% | 82.9% | 87.2% | 79.5% | 83.2% | 76.4% | 85.3% | 92.7% | 93.5% | 92.2% | 87.7% | 90.3% | 73.1% | 73.3% | 92% | 81.2% | 71.4%
3 | CNC(=O)c1ccc(N2C(=S)N(c3ccc(C#N)c(C(F)(F)F)c3)C(=O)C2(C)C)cc1F | 87.7% | 114% | 105% | 125% | 117% | 127% | 120% | 115% | 143% | 127% | 111% | 93% | 124% | 121% | 118% | 125% | 111% | 111% | 121% | 123% | 121% | 115% | 102% | 112% | 103% | 113% | 121% | 116% | 124% | 126% | 115% | 121% | 114%
4 | CC1(C)Cc2c(sc(NC(=S)NC(=O)c3ccccc3)c2C(=O)O)CO1 | 102% | 107% | 100% | 117% | 120% | 114% | 115% | 112% | 114% | 94.5% | 95.1% | 115% | 111% | 105% | 101% | 105% | 96.6% | 118% | 106% | 115% | 101% | 91.5% | 87.7% | 102% | 96.3% | 108% | 109% | 103% | 121% | 109% | 101% | 101% | 102%
5 | C[N+](C)(C)CC(=O)O.[Cl-] | 63.1% | 90.5% | 85% | 94.9% | 94.4% | 86.3% | 95.6% | 89.5% | 104% | 86.5% | 93.9% | 77.1% | 86% | 80.4% | 81.6% | 85.5% | 87.6% | 87.8% | 80.3% | 83.2% | 84.2% | 81.1% | 68.8% | 88.1% | 79.7% | 89.3% | 90.8% | 89.1% | 92.3% | 91.5% | 83.8% | 92% | 84.7%
6 | NCCCCCC(=O)O | 97.6% | 95.2% | 104% | 88.4% | 107% | 119% | 110% | 110% | 96.3% | 97% | 99.1% | 91.2% | 94.7% | 108% | 94.2% | 102% | 107% | 86.4% | 92.5% | 97.1% | 88.2% | 95.9% | 80.4% | 92.8% | 107% | 93.4% | 97.3% | 103% | 92.7% | 87.8% | 93.9% | 85.6% | 96.4%
7 | CN(c1nccc(=O)[nH]1)C1CCN(c2nc3ccccc3n2Cc2ccc(F)cc2)CC1 | 90% | 104% | 116% | 117% | 128% | 124% | 116% | 120% | 105% | 111% | 99.1% | 104% | 101% | 112% | 104% | 114% | 115% | 130% | 126% | 117% | 108% | 105% | 109% | 108% | 105% | 121% | 114% | 116% | 122% | 121% | 114% | 131% | 90.8%
8 | NC(=O)c1ccc(-c2nc(-c3ccc4c(c3)OCO4)c(-c3ccccn3)[nH]2)cc1 | 114% | 135% | 118% | 134% | 118% | 132% | 119% | 123% | 121% | 120% | 124% | 121% | 112% | 127% | 113% | 126% | 111% | 124% | 109% | 108% | 125% | 112% | 117% | 108% | 117% | 114% | 116% | 110% | 119% | 116% | 109% | 113% | 105%
9 | C/C(=C\c1csc(C)n1)[C@@H]1C[C@@H]2O[C@]2(C)CCC[C@H](C)[C@H](O)[C@@H](C)C(=O)C(C)(C)[C@@H](O)CC(=O)O1 | 22.6% | 28.6% | 32% | 27.8% | 29.6% | 27.8% | 29.6% | 35% | 25.2% | 27.6% | 31.3% | 14.1% | 18.3% | 20.6% | 18.3% | 20.3% | 15.9% | 16.8% | 19.2% | 15.3% | 14.5% | 14.9% | 18.1% | 22.2% | 22.9% | 39.2% | 23.9% | 24.5% | 21.8% | 21.4% | 21.9% | 25% | 20%
10 | CCCCCCCCOc1ccccc1C(=O)Nc1ccc(C(=O)OCC[N+](C)(CC)CC)cc1 | 101% | 104% | 103% | 104% | 110% | 99.5% | 85.8% | 100% | 78.1% | 88.1% | 28.7% | 84.6% | 94.7% | 93.2% | 83.8% | 93.4% | 86.4% | 90.1% | 83.7% | 82% | 81% | 21.7% | 92.8% | 93.5% | 96.6% | 90.1% | 98.3% | 91.9% | 83.7% | 84.4% | 73.9% | 88.8% | 31.8%
11 | CCc1c(O)cc(O)c(C(=O)c2ccc(OCCN3CCOCC3)c(OC)c2)c1CC(=O)N(CCOC)CCOC | 102% | 106% | 117% | 127% | 127% | 119% | 114% | 80.7% | 21.2% | 13.7% | 11.6% | 101% | 101% | 113% | 106% | 118% | 124% | 109% | 93.4% | 21.6% | 12.3% | 11.3% | 115% | 114% | 114% | 108% | 114% | 106% | 102% | 98.8% | 28.2% | 16.4% | 14.1%
12 | CCCNCC(O)COc1ccccc1C(=O)CCc1ccccc1 (stereo unspecified) | 82.6% | 117% | 113% | 106% | 121% | 120% | 123% | 112% | 124% | 114% | 96.9% | 23.6% | 106% | 106% | 117% | 111% | 109% | 111% | 122% | 124% | 111% | 107% | 108% | 98.5% | 124% | 122% | 124% | 111% | 111% | 121% | 118% | 119% | 103%
13 | CC(C[N+](C)(C)C)OC(N)=O (stereo unspecified) | 128% | 124% | 121% | 119% | 131% | 128% | 116% | 117% | 119% | 139% | 103% | 115% | 109% | 119% | 106% | 118% | 108% | 108% | 105% | 100% | 101% | 97.5% |  |  |  |  |  |  |  |  |  |  | 
14 | O=P1(N(CCCl)CCCl)NCCCO1 (stereo unspecified) | 134% | 106% | 108% | 115% | 101% | 112% | 122% | 120% | 97.6% | 91% | 75.7% | 108% | 98.4% | 110% | 99.7% | 102% | 103% | 97.8% | 87.3% | 91.4% | 50.5% | 47.5% | 85.1% | 110% | 99.7% | 119% | 119% | 112% | 103% | 110% | 84.9% | 54% | 50.7%
15 | CO[C@H]1/C=C/O[C@@]2(C)Oc3c(C)c(O)c4c(O)c(c(/C=N\N5CCN(C6CCCC6)CC5)c(O)c4c3C2=O)NC(=O)/C(C)=C\C=C\[C@H](C)[C@H](O)[C@@H](C)[C@@H](O)[C@@H](C)[C@H](OC(C)=O)[C@@H]1C | 119% | 123% | 104% | 116% | 90.5% | 93.4% | 79.3% | 52.3% | 28.9% | 6.78% | 0.815% | 123% | 110% | 111% | 107% | 109% | 76.5% | 75.1% | 51.8% | 17.9% | 3.98% | 0.906% | 100% | 98.4% | 95.2% | 80.2% | 83.4% | 79.3% | 64.7% | 52.9% | 24.1% | 3.08% | 0.433%
16 | CN1CC/C(CC1)=C3\c4ccccc4CC(=O)c2sccc23 | 120% | 125% | 114% | 121% | 130% | 128% | 153% | 135% | 110% | 112% | 105% | 120% | 123% | 136% | 135% | 136% | 134% | 156% | 131% | 142% | 151% | 128% |  |  |  |  |  |  |  |  |  |  | 
